How the values were obtained:
[1] = test system: human colorectal HCT-116 cancer cell line; assay: In vitro cytotoxic screening (MTT assay), HCT-116; format: cell-based; details: average ± standard deviation
Procedure: (§1) Using human breast MCF-7, colorectal HCT-116, and prostate PC-3 cancer cell lines, preliminary antiproliferative effectiveness of cyclopenta[4,5]thieno[2,3-d][1,2,4]triazolo[1,5-a]pyrimidin-9(6H)-ones 4–16 was established in vitro through MTT assay at different concentrations (100, 50, 25 and 12.5 μM) (Figure 2).
(§2) The cell lines were obtained from Karolinska Center, Department of Oncology and Pathology, Karolinska Institute and Hospital, Stockholm, Sweden. as follows: human breast MCF-7, colorectal HCT-116 and prostate PC-3 cancer cell lines and human skin normal BJ-1 cell line. Exponentially, cells were cultured at a concentration of 10^4 cells/well for 24 h, afterwards fresh medium containing different concentrations of the tested samples was added. Serial two-fold dilution of the tested samples were added using a multichannel pipette. Moreover, all cells were cultivated at 37 °C, 5% CO2 and 95% humidity. Also, incubation of control cells occurred at 37 °C. However, after incubation for 24 h different concentrations of samples (100, 50, 25 and 12.5 µM) were added and the incubation was continued for 48 h, then crystal violet solution 1% was added to each well for 0.5 h to examine the presence of viable cells. After rinsing the wells using water until stain free, 30% glacial acetic acid was added to all wells with shaking the plates on a Microplate reader (TECAN, Inc.) to measure the absorbance at a wavelength of 490 nm. The cytotoxicity was estimated by IC50 in μM, which is the concentration that inhibits 50% of growth of cancer cells. […]
(§3) 1.1. In vitro cytotoxic screening
(§4) The cell lines were obtained from Karolinska Center, Department of Oncology and Pathology, Karolinska Institute and Hospital, Stockholm, Sweden. as follows: human breast MCF-7, colorectal HCT-116 and prostate PC-3 cancer cell lines and human skin normal BJ-1 cell line. Exponentially, cells were placed in 10^4 cells/ well for 24 h, and then add fresh medium which containing different concentration of the tested sample. Serial two-fold dilution of the tested sample were added using a multichannel pipette. Moreover, all cells were cultivated at 37 °C, 5% CO2 and 95% humidity. Also, incubation of control cells occurred at 37 °C. However, after incubation for 24 h different concentrations of sample (100, 50, 25 and 12.5 µM) were added and continued the incubation for 48 h, then, add the crystal violet solution 1% to each well for 0.5 h to examine viable cells. Rinse the wells using water until no stain. After that, add 30% glacial acetic acid to all wells with shaking plates on Microplate reader (TECAN, Inc.) to measure the absorbance, using a test wavelength of 490 nm. Besides, compare the treated samples with the control cell. The cytotoxicity was estimated by IC50 in (μ M), the concentration that inhibits 50% of growth of cancer cell. […]
(§5) The molecular docking simulation of the promising in vitro screened cyclopenta[4,5]thieno[2,3-d][1,2,4]triazolo[1,5-a]pyrimidin-9(6H)-ones 10b and 10e against EGFR and PI3K was done using the Molecular Operating Environment software (MOE-Dock) version 2014.0901. The co-crystallized structures of EGFR and PI3K kinases complexed with their native ligands, erlotinib and quinolone LXX, were downloaded from the protein data bank (PDB codes: 1M17 and 3L54, respectively). All minimizations were performed using MOE until an RMSD gradient of 0.05 kcal∙mol−1Å−1 with MMFF94x force field and the partial charges were automatically calculated. Preparation of the enzyme structures was done for molecular docking using Protonate 3D protocol with the default options in MOE. London dG scoring function and Triangle Matcher placement method were used in the docking protocol. Initially, the original ligands were re-docked into the active binding site of EGFR and PI3K kinases to assess the root-mean-square deviation values. Then, the docking studies of the newly targeted […]

[2] = test system: human prostate PC-3 cancer cell line; assay: In vitro cytotoxic screening (MTT assay), PC-3; format: cell-based; details: average ± standard deviation
Procedure: as §1, §2, §3, §4, §5

[3] = test system: human breast MCF-7 cancer cell line; assay: In vitro cytotoxic screening (MTT assay), MCF-7; format: cell-based; details: average ± standard deviation
Procedure: as §1, §2, §3, §4, §5

Structure (SMILES) | melting point [°C] | Percentage cytotoxicity on HCT-116 ([1]; 12.5 µM) [%] | Percentage cytotoxicity on HCT-116 ([1]; 25 µM) [%] | Percentage cytotoxicity on HCT-116 ([1]; 50 µM) [%] | Percentage cytotoxicity on HCT-116 ([1]; 100 µM) [%] | Percentage cytotoxicity on PC-3 ([2]; 12.5 µM) [%] | Percentage cytotoxicity on PC-3 ([2]; 25 µM) [%] | Percentage cytotoxicity on PC-3 ([2]; 50 µM) [%] | Percentage cytotoxicity on PC-3 ([2]; 100 µM) [%] | Percentage cytotoxicity on MCF-7 ([3]; 12.5 µM) [%] | Percentage cytotoxicity on MCF-7 ([3]; 25 µM) [%] | Percentage cytotoxicity on MCF-7 ([3]; 50 µM) [%] | Percentage cytotoxicity on MCF-7 ([3]; 100 µM) [%]
COc1ccc(-c2nn3c(=O)c4c5c(sc4nc3n2[C@@H]2O[C@H](COC(C)=O)[C@@H](OC(C)=O)[C@H](OC(C)=O)[C@H]2OC(C)=O)CCC5)cc1 [Compound 16, 2-(4-Methoxyphenyl)-3-(2,3,4,6-tetra-O-acetyl-β-D-glocopyranosyl)-7,8-dihydro-3H-cyclopenta[4,5]thieno[2,3-d][1,2,4]triazolo[1,5-a]pyrimidin-9(6H)-one] | > 300 | 0.0±0.005 | 0.0±0.005 | 0.0±0.005 | 1.0±0.5 | 0.0±0.005 | 0.0±0.005 | 0.0±0.005 | 14.5±1.6 | 0.0±0.005 | 0.0±0.005 | 0.0±0.005 | 29.5±1.6
Cc1nn2c(=O)c3c4c(sc3nc2[nH]1)CCC4 [Compound 5, 2-Methyl-7,8-dihydro-3H-cyclopenta[4,5]thieno[2,3-d][1,2,4]triazolo[1,5-a]pyrimidin-9(6H)-one] | 93 to 95 | 0.0±0.005 | 0.0±0.005 | 0.0±0.005 | 0.0±0.005 | 0.0±0.005 | 0.0±0.005 | 0.0±0.005 | 0.0±0.005 | 0.0±0.005 | 0.0±0.005 | 0.0±0.005 | 18.9±10
O=c1c2c3c(sc2nc2[nH]c(-c4ccc([N+](=O)[O-])cc4)nn12)CCC3 [Compound 10c, 2-(4-Nitrophenyl)-3,6,7,8-tetrahydro-9H-cyclopenta[4,5]thieno[2,3-d][1,2,4]triazolo[1,5-a]pyrimidin-9-one] | 220 | 20.2±2.9 | 38.2±0.9 | 39.4±0.9 | 40.4±2.4 | 48.3±2.0 | 53.4±1.2 | 54.8±1.6 | 54.7±2.8 | 8.18±1.01 | 24.04±2.59 | 25.97±1.28 | 33.62±2.13
CCOC(=O)Cc1nn2c(=O)c3c4c(sc3nc2[nH]1)CCC4 [Compound 6, Ethyl 2-(9-oxo-6,7,8,9-tetrahydro-3H-cyclopenta[4,5]thieno[2,3-d][1,2,4]triazolo[1,5-a]-pyrimidin-2-yl)acetate] | > 300 | 0.0±0.005 | 0.0±0.005 | 0.0±0.005 | 0.0±0.005 | 0.0±0.005 | 0.0±0.005 | 0.0±0.005 | 15.1±4.1 | 0.0±0.005 | 0.0±0.005 | 0.0±0.005 | 24±2.5
N#CCc1nn2c(=O)c3c4c(sc3nc2[nH]1)CCC4 [Compound 7, 2-(9-Oxo-6,7,8,9-tetrahydro-3H-cyclopenta[4,5]thieno[2,3-d][1,2,4]triazolo[1,5-a]pyrimidin-2-yl)acetonitrile] | > 300 |  |  |  |  |  |  |  |  |  |  |  | 

Further lines, with some results ahead:

melting point [°C] | Structure (SMILES) | Percentage cytotoxicity on HCT-116 ([1]; 12.5 µM) [%] | Percentage cytotoxicity on HCT-116 ([1]; 25 µM) [%] | Percentage cytotoxicity on HCT-116 ([1]; 50 µM) [%] | Percentage cytotoxicity on HCT-116 ([1]; 100 µM) [%] | Percentage cytotoxicity on PC-3 ([2]; 12.5 µM) [%] | Percentage cytotoxicity on PC-3 ([2]; 25 µM) [%] | Percentage cytotoxicity on PC-3 ([2]; 50 µM) [%] | Percentage cytotoxicity on PC-3 ([2]; 100 µM) [%] | Percentage cytotoxicity on MCF-7 ([3]; 12.5 µM) [%] | Percentage cytotoxicity on MCF-7 ([3]; 25 µM) [%] | Percentage cytotoxicity on MCF-7 ([3]; 50 µM) [%] | Percentage cytotoxicity on MCF-7 ([3]; 100 µM) [%]
> 300 | CC(=O)OC[C@@H](OC(C)=O)[C@H](OC(C)=O)[C@H](OC(C)=O)[C@@H](OC(C)=O)c1nc2nc3sc4c(c3c(=O)n2[nH]1)CCC4 [Compound 12b, (1S,2R,3S,4R)-1-(9-oxo-1,7,8,9-tetrahydro-6H-cyclopenta[4,5]thieno[2,3-d][1,2,4]triazolo[1,5-a]pyrimidin-2-yl)pentane-1,2,3,4,5-pentayl pentaacetate] | 0.0±0.005 | 0.0±0.005 | 0.0±0.005 | 13.3±3.1 | 1.5±2.3 | 4.8±1.1 | 7.3±0.9 | 20.6±3.3 | 0.0±0.005 | 5.5±0.6 | 20.8±2.1 | 30.1±7.5
> 300 | CC(=O)OC[C@@H](OC(C)=O)[C@@H](OC(C)=O)[C@H](OC(C)=O)[C@@H](OC(C)=O)c1nc2nc3sc4c(c3c(=O)n2[nH]1)CCC4 [Compound 12a, (1S,2R,3R,4R)-1-(9-oxo-1,7,8,9-tetrahydro-6H-cyclopenta[4,5]thieno[2,3-d][1,2,4]triazolo[1,5-a]pyrimidin-2-yl)pentane-1,2,3,4,5-pentayl pentaacetate] |  |  |  |  |  |  |  |  |  |  |  | 
> 300 | O=c1c2c3c(sc2nc2nc([C@H](O)[C@@H](O)[C@@H](O)[C@H](O)CO)[nH]n12)CCC3 [Compound 11b, 2-((1S,2R,3S,4R)-1,2,3,4,5-pentahydroxypentyl)-1,6,7,8-tetrahydro-9H-cyclopenta[4,5]thieno[2,3-d][1,2,4]triazolo[1,5-a]pyrimidin-9-one] | 18.2±2.3 | 16.1±1.6 | 21.8±1.9 | 18.7±7.6 | 0.0±0.005 | 0.0±0.005 | 0.0±0.005 | 12.7±3.8 | 0.0±0.005 | 0.0±0.005 | 22.1±6.9 | 39.4±8.3
> 300 | O=c1c2c3c(sc2nc2nc([C@@H](O)[C@H](O)[C@H](O)CO)[nH]n12)CCC3 [Compound 11d, 2-((1R,2S,3R)-1,2,3,4-tetrahydroxybutyl)-1,6,7,8-tetrahydro-9H-cyclopenta[4,5]thieno[2,3-d][1,2,4]triazolo[1,5-a]pyrimidin-9-one] | 0.0±0.005 | 0.0±0.005 | 0.0±0.005 | 10.0±3.4 | 5.4±6.8 | 6.8±0.3 | 9.7±0.5 | 25.3±3.8 | 0.0±0.005 | 29.2±2.9 | 47.9±2.2 | 50.5±0.2
